Laboratory results as given in article PMC8145546, “Inhibition of Rice Serotonin N-Acetyltransferases by MG149 Decreased Melatonin Synthesis in Rice Seedlings” (Biomolecules, 2021).

Experiments:
[1] = biological target: T1, OsSNAT2 (rice recombinant SNAT2) (Oryza sativa, UniProt Q6Z1Y6); assay: HPLC-fluorescence of N-acetylserotonin formed; type: biochemical
T1 construct: N-terminal 34 residues deleted; purified recombinant
T1 sequence (Q6Z1Y6 35-200): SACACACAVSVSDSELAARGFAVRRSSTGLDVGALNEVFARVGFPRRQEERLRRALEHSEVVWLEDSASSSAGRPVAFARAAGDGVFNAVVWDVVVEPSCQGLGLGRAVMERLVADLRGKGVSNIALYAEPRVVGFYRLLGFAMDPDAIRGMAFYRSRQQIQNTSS

[2] = biological target: T2, OsSNAT1 (rice recombinant SNAT1) (Oryza sativa, UniProt Q5KQI6); assay: HPLC-fluorescence of N-acetylserotonin formed; type: biochemical
T2 construct: N-terminal 83 residues deleted; E. coli, plasmid pET300-Δ83SNAT1; purified recombinant
T2 sequence (Q5KQI6 84-254): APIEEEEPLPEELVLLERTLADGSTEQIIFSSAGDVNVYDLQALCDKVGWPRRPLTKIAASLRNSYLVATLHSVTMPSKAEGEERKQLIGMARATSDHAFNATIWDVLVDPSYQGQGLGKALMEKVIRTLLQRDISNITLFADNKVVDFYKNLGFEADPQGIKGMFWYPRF

CCCCCCCc1ccc(CCc2cccc(O)c2C(=O)O)cc1 [MG149]
inhibition at 100 µM [1]: 28%
inhibition at 50 µM [2]: 80%
